Results published in patent US20260294922A1, “Inhibitors of JUN N-Terminal Kinases (JNK1, JNK2, and/or JNK3) and Mitogen-Activated Protein Kinases (MAPK8, MAPK9, and/or MAPK10) and Methods of Using Same” (Baylor College of Medicine, priority 2023, published 2026).

Assays:
[1] = target: JNK2 (Homo sapiens, UniProt P45984); assay: JNK2 kinase (intrinsic ATPase, Kinase-Glo) assay; type: biochemical; details: Table 3a; read-out: Kd JNK2
[2] = target: T1, JNK3 (Homo sapiens, UniProt P53779); assay: JNK3 kinase (intrinsic ATPase, Kinase-Glo) assay; type: biochemical; details: Table 3a; read-out: Kd JNK3
T1 sequence (P53779 whole entry): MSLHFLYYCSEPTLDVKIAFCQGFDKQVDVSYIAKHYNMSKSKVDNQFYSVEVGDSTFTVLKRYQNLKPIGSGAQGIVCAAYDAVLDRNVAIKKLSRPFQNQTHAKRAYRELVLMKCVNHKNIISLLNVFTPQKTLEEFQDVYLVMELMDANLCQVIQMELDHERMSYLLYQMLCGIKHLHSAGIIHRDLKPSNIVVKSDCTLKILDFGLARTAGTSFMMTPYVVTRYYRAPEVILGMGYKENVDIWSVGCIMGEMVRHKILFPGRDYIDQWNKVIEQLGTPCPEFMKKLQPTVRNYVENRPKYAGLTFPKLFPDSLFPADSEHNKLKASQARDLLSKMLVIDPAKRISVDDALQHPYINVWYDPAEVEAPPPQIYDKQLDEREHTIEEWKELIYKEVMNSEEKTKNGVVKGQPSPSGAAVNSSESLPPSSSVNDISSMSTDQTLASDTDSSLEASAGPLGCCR

[3] = target: T2, CSNK1D (Homo sapiens, UniProt P48730); assay: ThermoFisher SelectScreen, CSNK1D; type: binding
T2 construct: purchased ThermoFisher (SelectScreen)
T2 sequence (P48730 whole entry): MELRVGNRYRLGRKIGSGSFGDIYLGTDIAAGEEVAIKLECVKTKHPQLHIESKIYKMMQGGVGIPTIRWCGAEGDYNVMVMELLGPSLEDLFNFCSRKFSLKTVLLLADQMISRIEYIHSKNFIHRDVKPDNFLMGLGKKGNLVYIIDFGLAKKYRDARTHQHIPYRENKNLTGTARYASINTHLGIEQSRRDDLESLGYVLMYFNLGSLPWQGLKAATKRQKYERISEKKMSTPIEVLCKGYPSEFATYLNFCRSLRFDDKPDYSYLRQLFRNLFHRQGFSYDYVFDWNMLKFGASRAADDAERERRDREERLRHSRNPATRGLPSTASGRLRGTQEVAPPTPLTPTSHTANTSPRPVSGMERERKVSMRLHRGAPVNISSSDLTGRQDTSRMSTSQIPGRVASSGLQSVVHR

[4] = target: T3, CSNK1G1 (Homo sapiens, UniProt Q9HCP0); assay: ThermoFisher SelectScreen, CSNK1G1; type: binding
T3 construct: purchased ThermoFisher (SelectScreen)
T3 sequence (Q9HCP0 whole entry): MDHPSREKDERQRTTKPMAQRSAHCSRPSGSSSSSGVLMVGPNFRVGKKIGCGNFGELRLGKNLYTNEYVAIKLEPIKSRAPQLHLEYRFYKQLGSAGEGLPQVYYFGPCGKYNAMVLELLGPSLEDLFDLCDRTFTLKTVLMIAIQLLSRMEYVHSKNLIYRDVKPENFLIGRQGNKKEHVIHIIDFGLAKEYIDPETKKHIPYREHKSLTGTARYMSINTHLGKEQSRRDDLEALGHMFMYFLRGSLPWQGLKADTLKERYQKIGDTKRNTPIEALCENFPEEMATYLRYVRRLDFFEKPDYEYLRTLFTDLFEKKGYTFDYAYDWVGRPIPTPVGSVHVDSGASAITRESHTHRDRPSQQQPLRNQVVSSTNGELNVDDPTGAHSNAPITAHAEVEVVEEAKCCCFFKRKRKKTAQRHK
Procedure: (§1) To mitigate violation of the linear initial velocity principle, which is a problem in end-point assays when doing dose-responses, the enzyme concentration was carefully optimized, in a total assay volume of 25 μL. The assay was performed using 10 μM ATP, 0.02% Tween-20, kinase buffer from Cell Signaling (#9802) in white 384-well plates. The kinase reaction was done for 30 or 60 min at 30° C., and detection of leftover ATP was measured according to Promega's protocol. […] Fractional activities were obtained from normalized data. Non-linear regression (GraphPad Prism7) and a modified Morrison equation for tight binding was used to determine apparent Ki values for inhibitors, assuming no particular mode of inhibition. An orthogonal binding assay (LanthaScreen) was outsourced to ThermoFisher Scientific's SelectScreen Services to determine IC50 values.
(§2) One of the earliest compounds to be synthesized with favorable enzymatic activity towards JNK1 and JNK3 was CDD-2346. A KINOMEscan was performed for CDD-2346 to establish whether the selectivity of this chemical scaffold was suitable or required optimization. […] To confirm that the activity against each kinase was a true result and not a false positive, CDD-2346 was evaluated in kinase assays using ThermoFisher SelectScreen platform. The results from these assays are provided herein (Table 4). The important innovative steps described are the optimization of selectivity a) for JNK isoforms; b) for kinases considered “in-pathway”; and c) to avoid kinases considered “out-of-pathway”.
No activity of CDD-2728 was detected for Atypical, Mutant, or Lipid kinases. To confirm CDD-2728 inhibition results in the KINOMEscan analysis, individual binding assays were performed on the kinases to which CDD-2728 bound using ThermoFisher SelectScreen.

[5] = target: T4, DYRK2 (Homo sapiens, UniProt Q92630); assay: ThermoFisher SelectScreen, DYRK2; type: binding; details: Table 4
T4 construct: purchased ThermoFisher (SelectScreen)
T4 sequence (Q92630 1-601): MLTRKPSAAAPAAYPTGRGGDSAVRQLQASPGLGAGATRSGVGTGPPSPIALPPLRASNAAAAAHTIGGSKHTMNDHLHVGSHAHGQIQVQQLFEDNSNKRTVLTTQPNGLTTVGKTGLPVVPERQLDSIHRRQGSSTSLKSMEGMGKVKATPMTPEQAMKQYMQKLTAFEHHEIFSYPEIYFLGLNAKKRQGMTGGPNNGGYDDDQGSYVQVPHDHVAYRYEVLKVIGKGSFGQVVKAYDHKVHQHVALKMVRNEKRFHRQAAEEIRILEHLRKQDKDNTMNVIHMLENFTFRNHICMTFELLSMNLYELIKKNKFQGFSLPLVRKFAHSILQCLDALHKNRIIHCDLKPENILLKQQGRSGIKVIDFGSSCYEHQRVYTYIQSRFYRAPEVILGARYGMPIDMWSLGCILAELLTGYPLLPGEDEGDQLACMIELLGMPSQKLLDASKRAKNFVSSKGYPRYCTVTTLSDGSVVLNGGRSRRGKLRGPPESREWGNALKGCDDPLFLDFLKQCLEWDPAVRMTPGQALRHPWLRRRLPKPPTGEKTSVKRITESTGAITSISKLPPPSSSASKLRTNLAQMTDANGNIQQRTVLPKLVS
Procedure: as §1, §2

[6] = target: T5, MEK5 (Homo sapiens, UniProt Q13163); assay: ThermoFisher SelectScreen, MEK5; type: binding; details: Table 4
T5 construct: purchased ThermoFisher (SelectScreen, outsourced service)
T5 sequence (Q13163 1-448): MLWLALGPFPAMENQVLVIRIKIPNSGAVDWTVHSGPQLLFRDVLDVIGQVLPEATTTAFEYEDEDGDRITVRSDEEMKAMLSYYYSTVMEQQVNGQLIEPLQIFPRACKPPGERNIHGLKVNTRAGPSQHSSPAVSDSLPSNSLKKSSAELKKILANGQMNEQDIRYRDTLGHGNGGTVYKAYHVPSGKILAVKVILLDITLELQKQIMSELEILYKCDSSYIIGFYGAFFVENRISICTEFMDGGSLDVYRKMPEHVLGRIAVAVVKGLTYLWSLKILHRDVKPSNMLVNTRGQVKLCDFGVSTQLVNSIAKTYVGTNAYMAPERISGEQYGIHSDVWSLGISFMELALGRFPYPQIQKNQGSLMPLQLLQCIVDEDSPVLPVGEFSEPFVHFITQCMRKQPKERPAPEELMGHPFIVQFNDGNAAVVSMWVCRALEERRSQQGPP
Procedure: as §1, §2

[7] = target: T6, MYLK (Homo sapiens, UniProt Q15746); assay: ThermoFisher SelectScreen, MYLK; type: binding; details: Table 4
T6 construct: purchased ThermoFisher (SelectScreen, outsourced service)
T6 sequence (Q15746 whole entry): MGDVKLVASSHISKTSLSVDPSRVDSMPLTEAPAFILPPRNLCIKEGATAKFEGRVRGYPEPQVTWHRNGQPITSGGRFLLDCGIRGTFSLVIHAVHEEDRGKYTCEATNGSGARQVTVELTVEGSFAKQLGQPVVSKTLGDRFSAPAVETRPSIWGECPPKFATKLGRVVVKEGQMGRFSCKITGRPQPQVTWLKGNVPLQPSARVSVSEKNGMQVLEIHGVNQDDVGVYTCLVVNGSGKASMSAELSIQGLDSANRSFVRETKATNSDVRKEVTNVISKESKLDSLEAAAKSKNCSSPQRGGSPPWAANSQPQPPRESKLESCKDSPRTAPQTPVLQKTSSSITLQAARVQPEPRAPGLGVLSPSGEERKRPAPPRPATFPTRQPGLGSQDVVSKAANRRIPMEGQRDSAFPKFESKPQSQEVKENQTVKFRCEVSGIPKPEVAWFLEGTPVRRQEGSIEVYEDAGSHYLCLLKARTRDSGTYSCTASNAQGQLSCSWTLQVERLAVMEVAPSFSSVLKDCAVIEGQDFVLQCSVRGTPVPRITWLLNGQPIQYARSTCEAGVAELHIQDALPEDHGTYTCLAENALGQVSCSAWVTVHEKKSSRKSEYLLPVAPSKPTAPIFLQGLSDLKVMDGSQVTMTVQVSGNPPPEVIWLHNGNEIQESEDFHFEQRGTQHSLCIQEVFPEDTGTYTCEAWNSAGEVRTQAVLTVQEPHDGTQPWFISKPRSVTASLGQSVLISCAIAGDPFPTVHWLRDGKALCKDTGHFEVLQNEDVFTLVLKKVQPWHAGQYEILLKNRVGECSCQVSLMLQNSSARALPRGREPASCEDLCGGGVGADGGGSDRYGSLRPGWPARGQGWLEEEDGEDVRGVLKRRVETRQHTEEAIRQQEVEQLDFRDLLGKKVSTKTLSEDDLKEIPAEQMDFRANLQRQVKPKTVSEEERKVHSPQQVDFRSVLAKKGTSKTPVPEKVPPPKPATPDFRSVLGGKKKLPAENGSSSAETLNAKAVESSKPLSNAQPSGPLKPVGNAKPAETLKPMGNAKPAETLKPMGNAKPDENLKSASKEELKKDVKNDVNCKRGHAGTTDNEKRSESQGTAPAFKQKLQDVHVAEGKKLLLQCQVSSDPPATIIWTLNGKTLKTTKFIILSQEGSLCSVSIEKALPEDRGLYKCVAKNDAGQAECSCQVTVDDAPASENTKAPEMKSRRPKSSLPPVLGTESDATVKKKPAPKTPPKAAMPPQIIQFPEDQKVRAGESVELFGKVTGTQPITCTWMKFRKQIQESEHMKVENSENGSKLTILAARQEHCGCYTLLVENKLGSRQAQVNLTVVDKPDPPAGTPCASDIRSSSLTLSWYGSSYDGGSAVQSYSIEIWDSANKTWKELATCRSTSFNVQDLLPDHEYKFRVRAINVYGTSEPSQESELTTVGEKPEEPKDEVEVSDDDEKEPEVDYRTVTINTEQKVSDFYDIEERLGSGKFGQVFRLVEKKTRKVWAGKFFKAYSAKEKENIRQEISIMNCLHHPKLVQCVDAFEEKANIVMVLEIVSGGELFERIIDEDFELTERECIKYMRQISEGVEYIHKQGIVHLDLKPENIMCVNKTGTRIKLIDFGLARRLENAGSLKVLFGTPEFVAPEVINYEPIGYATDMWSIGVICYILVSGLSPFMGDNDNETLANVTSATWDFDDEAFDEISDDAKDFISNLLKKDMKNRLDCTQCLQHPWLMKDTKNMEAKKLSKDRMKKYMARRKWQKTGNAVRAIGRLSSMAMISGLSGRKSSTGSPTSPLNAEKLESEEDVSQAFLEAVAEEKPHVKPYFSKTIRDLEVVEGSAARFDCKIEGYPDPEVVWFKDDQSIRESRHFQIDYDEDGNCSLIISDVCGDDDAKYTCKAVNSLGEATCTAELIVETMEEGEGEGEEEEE
Procedure: as §1, §2

[8] = target: T7, PHKG2 (Homo sapiens, UniProt P15735); assay: ThermoFisher SelectScreen, PHKG2; type: binding; details: Table 4
T7 construct: purchased ThermoFisher (SelectScreen, outsourced service)
T7 sequence (P15735 1-406): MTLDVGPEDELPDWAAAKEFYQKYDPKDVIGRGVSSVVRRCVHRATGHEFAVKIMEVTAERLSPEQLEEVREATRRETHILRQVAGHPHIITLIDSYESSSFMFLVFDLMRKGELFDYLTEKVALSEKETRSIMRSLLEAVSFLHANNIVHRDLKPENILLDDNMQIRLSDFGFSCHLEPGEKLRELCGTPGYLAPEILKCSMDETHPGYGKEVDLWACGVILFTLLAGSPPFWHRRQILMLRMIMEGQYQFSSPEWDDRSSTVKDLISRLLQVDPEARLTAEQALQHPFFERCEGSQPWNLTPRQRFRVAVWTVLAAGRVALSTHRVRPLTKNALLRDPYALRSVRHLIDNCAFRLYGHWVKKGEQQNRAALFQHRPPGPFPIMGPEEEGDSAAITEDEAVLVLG
Procedure: as §1, §2

[9] = target: T8, PIP5K1C (Homo sapiens, UniProt O60331); assay: ThermoFisher SelectScreen, PIP5K1C; type: binding; details: Table 4
T8 construct: purchased ThermoFisher (SelectScreen, outsourced service)
T8 sequence (O60331 whole entry): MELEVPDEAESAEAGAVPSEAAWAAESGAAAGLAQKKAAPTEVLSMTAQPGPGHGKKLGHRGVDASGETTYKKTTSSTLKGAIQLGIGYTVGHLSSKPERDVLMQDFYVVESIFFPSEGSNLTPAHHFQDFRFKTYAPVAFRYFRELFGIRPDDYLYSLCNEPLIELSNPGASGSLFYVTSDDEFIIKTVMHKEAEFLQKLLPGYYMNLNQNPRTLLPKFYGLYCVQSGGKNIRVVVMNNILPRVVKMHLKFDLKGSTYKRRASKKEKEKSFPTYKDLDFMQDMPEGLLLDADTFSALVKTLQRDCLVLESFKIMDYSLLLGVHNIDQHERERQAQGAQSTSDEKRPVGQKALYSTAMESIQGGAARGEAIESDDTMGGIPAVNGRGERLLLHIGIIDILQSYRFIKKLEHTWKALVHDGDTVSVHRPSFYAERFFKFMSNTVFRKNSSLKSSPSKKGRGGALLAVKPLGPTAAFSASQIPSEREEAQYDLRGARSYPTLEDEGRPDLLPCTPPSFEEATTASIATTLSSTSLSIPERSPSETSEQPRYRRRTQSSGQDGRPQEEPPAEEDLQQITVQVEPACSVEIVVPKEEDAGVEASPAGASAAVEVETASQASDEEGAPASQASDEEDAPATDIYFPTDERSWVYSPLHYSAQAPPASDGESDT
Procedure: as §1, §2

[10] = target: T1, JNK3; assay: ThermoFisher SelectScreen, JNK3; type: binding
[11] = target: JNK1 (Homo sapiens, UniProt P45983); assay: Promega NanoBRET intracellular target engagement (tracer K10 displacement), JNK1; type: cell-based
JNK1, sequence (P45983 whole entry): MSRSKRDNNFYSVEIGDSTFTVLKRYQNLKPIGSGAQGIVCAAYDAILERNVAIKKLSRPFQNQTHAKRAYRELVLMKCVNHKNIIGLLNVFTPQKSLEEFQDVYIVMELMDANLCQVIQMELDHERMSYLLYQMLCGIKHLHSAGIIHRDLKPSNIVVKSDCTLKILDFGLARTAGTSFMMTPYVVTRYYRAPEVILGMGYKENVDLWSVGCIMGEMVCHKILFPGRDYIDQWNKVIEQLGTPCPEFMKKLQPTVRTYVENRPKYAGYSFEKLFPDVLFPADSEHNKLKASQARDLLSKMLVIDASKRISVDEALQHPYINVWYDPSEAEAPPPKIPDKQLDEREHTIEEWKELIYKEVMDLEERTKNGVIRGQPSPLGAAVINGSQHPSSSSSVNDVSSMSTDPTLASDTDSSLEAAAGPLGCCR

[12] = In vitro metabolism in mouse liver microsomes; details: mouse, microsomes
Procedure: (§3) The target product profile seeks to deliver JNK inhibitor as a once daily oral administration. To prioritize compounds for further development, in vitro metabolism of several CDD JNK inhibitors were determined to approximate the plasma half-life and the rate of metabolism of the compounds in vivo.

[13] = In vitro metabolism in human liver microsomes; details: human, microsomes
Procedure: as §3

JNK2, sequence (P45984 whole entry): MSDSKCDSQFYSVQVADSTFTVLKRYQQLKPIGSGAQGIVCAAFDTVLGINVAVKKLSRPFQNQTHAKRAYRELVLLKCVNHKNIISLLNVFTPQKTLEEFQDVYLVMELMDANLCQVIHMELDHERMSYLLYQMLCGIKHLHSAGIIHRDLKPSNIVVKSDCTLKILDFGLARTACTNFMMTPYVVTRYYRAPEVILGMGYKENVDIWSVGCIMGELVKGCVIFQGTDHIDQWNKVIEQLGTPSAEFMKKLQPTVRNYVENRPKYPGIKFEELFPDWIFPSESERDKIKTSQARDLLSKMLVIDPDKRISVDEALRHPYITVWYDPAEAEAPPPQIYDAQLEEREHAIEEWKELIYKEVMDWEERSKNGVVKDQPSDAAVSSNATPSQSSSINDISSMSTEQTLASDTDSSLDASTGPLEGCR

Compound | Kd [1] | Kd [2] | Kd [3] | Kd ([4]; Table 4) | Kd [5] | Kd [6] | Kd [7] | Kd [8] | Kd [9] | Kd [10] | IC50 [11] | inhibition of binding to JNK1, JNK2, and JNK3 relative to staurosporine ([11]; NanoBRET) | half-life [12] | half-life [13] | Kd ([4]; Table 5) | improvement of NanoBRET IC50 for JNK1 (CDD-2346/CDD-2728) ([11]; relative to CDD-2346)
CNCc1ccc(NC(=O)c2ccn3ncc(-c4cnc5[nH]ccc5c4)c3c2)cc1 [CDD-2346, N-(4-((methylamino)methyl)phenyl)-3-(1H-pyrrolo[2,3-b]pyridin-5-yl)pyrazolo[1,5-a]pyridine-5-carboxamide] | 0.94 ± 0.22 nM | 0.65 ± 0.16 nM | 55 nM | 133 nM | 78 nM | 579 nM | 442 nM | 188 nM | 811 nM | 0.65 nM | 5100 nM | superior to staurosporine | 1.15 h | 3.14 h |  | 
CN(C)Cc1ccc(NC(=O)c2ccn3ncc(-c4cnc5[nH]ccc5c4)c3c2)cc1 [CDD-2482, N-(4-((dimethylamino)methyl)phenyl)-3-(1H-pyrrolo[2,3-b]pyridin-5-yl)pyrazolo[1,5-a]pyridine-5-carboxamide] | 0.74 ± 0.09 nM | 0.45 ± 0.04 nM | 30 nM | 52 nM | 48 nM | 547 nM | 501 nM | 110 nM | 13200 nM | 0.45 nM |  |  | 0.277 h | 0.945 h |  | 
O=C(Nc1ccc(F)cc1)c1ccn2ncc(-c3cnc4[nH]ccc4c3)c2c1 [CDD-2486, N-(4-fluorophenyl)-3-(1H-pyrrolo[2,3-b]pyridin-5-yl)pyrazolo[1,5-a]pyridine-5-carboxamide] | 0.67 ± 0.09 nM | 0.86 ± 0.05 nM | 2350 nM | 14400 nM | 288 nM | 4040 nM | 942 nM | 1950 nM | 1150 nM | 4.34 nM | 770 nM |  | 0.18 h | 0.565 h |  | 
CN(C)C(=O)c1cc(NC(=O)c2cc3c(-c4cnc5[nH]ccc5c4)cccc3s2)ccc1O [CDD-2728, N-(3-(dimethylcarbamoyl)-4-hydroxyphenyl)-4-(1H-pyrrolo[2,3-b]pyridin-5-yl)benzo[b]thiophene-2-carboxamide] |  |  | 821 nM |  |  |  |  |  |  |  | 599 nM |  | 1.42 h | 2.89 h | 4400 nM | 8.5 fold
